Patent US20210078972A1, “QUINOLINE OR QUINAZOLINE COMPOUND AND APPLICATION THEREOF” (HAIHE BIOPHARMA CO., LTD., priority 2018, published 2021)

What was measured:
Flt3 kinase = target: T1, Flt3 kinase (Homo sapiens, UniProt P36888); assay: Flt3 kinase inhibition, Z'-LYTE FRET; type: biochemical; details: ATP 500 μM
T1 construct: purchased life PV6253
T1 sequence (P36888 27-993): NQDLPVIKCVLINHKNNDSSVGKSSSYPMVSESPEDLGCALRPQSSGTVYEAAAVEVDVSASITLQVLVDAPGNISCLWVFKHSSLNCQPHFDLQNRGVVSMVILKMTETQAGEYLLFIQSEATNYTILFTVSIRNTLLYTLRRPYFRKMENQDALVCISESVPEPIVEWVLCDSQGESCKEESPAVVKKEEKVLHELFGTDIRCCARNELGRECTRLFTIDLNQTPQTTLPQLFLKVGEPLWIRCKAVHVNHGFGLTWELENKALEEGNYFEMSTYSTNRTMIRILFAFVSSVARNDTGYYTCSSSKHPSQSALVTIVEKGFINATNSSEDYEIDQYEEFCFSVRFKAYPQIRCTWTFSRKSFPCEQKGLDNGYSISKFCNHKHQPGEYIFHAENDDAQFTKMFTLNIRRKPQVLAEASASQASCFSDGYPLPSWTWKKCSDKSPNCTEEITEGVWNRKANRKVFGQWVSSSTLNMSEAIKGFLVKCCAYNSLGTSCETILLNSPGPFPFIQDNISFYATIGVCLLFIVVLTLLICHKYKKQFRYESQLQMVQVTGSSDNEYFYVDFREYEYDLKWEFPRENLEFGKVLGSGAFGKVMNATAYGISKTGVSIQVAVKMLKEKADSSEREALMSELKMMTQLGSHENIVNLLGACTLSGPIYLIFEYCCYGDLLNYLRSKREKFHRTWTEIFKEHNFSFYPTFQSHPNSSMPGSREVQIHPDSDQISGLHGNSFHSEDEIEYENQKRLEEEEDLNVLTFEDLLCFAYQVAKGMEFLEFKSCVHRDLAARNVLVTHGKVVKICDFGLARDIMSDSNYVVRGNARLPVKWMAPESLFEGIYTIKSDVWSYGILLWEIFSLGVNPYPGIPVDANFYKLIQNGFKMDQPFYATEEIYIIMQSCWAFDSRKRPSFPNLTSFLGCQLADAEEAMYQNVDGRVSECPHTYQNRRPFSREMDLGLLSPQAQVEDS
Description: Detection of the activity of kinase: the inhibitory activities of the compounds against Flt3 kinase (life, PV6253) were detected through a second-order reaction by the Z′-LYTE™ technology (detected by fluorescence, enzyme-coupled form, based on the difference in a sensitivity of phosphorylated and non-phosphorylated polypeptides to proteolytic cleavage), based on the principle of fluorescence resonance energy transfer (FRET), using Z′-LYTE™ FRET peptide substrate (Z′-LYTE™ Tyrosine 2 Peptide Substrate, Invitrogen, PV3191).
Enzymatic reaction: To a 384-well plate were added 5 μL of enzyme-substrate system (50 mM HEPES, pH 7.5, 0.01% BRU-35, 10 mM MgC2, 1 mM EGTA), 2.5 μL of a compound (concentration gradient) and 2.5 μL of a mixed solution of ATP (a final concentration of a substrate Z′-LYTE™ Tyrosine 2 Peptide Substrate was 2 μM, and a final concentration of ATP was 500 μM), and then the plate was incubated at 37° C. in the dark for 1 h.
Detecting reaction: 5 μL of Development Solution (1:64 dilution) was added to each well and the plate was incubated at 37° C. in the dark for 1 h, then 5 μL of Stop Reagent was added.
The data analysis method is as follows:
Phosphorylation ratio=1−{(emission ratio×F100%−C100%)/[C0%−C100%+emission ratio×(F100%−F0%)]}×100;
Inhibition rate=100×(1−compound phosphorylation ratio/negative control phosphorylation ratio).
The IC50 values were calculated by GraphPad Prism software.

[1] = system: Mixed primary macaca fascicularis hepatocytes; assay: Metabolism in monkey hepatocytes, UPLC-UV/Q-TOF MS; type: in vitro ADME; details: 180 min
Experimental: (§1) In this example, a UPLC-UV/Q-TOF MS method was used to evaluate the differences in the metabolic processes of TL134 in hepatocytes of five species of human, monkey, canine, rat, and mouse.
(§2) The total volume of each incubation sample was 100 μL, the medium was WME medium (pH 7.4), and the incubation sample included hepatocytes with a cell density of 1.0×10^6 cells/mL and TL134 with a final concentration of 3.0 μM; the negative control sample was incubated with thermal-inactivated mixed hepatocytes (without cell counting) of five species of animals and TL134, and the buffer control sample was incubated with WME medium and TL134. All samples were incubated at 37° C. for 180 min, and then 100 μL of ice-cold acetonitrile was added to stop the reaction. The samples were stored at −70° C. for ready to be tested, and all incubation samples were double samples.
(§3) Triple TOF 5600′ quadrupole-time-of-flight tandem mass spectrometer (Q-TOF MS), equipped with electrospray ionization source (ESI source) and CDS automatic calibration system, AB SCIEX Company, USA; Acquity UPLC liquid chromatography system, including binary infusion pump, autosampler, column oven, degasser and TUV ultraviolet detector, Waters Company, USA. […]

[2] = system: Mixed primary male beagle canine hepatocytes; assay: Metabolism in canine hepatocytes, UPLC-UV/Q-TOF MS; type: in vitro ADME; details: 180 min
Experimental: as §1, §2, §3

Row | IC50 (Flt3 kinase) [nM] | prototype drug metabolized, judging from the UV chromatographic peak areas [1] | prototype drug metabolized, judging from the UV chromatographic peak areas [2] [%] | Structure (SMILES)
1 | 1.9 | ~4.6% | ~15.4 | COc1cc2c(Oc3ccc(NC(=O)c4c(C)n(C)c5ccc(OC(F)(F)F)cc5c4=O)cc3F)ncnc2cc1OCCCN1CCOCC1 [TL-134, N-(3-fluoro-4-((6-methoxy-7-(3-morpholinopropoxy)quinazolin-4-yl)oxy)phenyl)-1,2-dim ethyl-4-oxo-6-(trifluoromethoxy)-1,4-dihydroquinoline-3-carboxamide]
2 | 10 | approximately 41.3% | ~27.2 | CCc1ccc2c(c1)c(=O)c(C(=O)Nc1ccc(Oc3ncnc4cc(OCCCN5CCOCC5)c(OC)cc34)c(F)c1)c(C)n2C [GDL5000123, 6-ethyl-N-(3-fluoro-4-((6-methoxy-7-(3-morpholinopropoxy)quinazolin-4-yl)oxy)phenyl)-1,2-dime thyl-4-oxo-1,4-dihydroquinoline-3-carboxamide, reference compound]
